Earlier results as cited in patent US20020099100A1, “Treatment of dry eye syndrome” (priority 2000, published 2002).

System: dry eye syndrome
Conditions: in vivo

Vitamin A
Underlying cellular changes that lead to dry eye syndrome: reverse many of the underlying cellular changes
